Common to all, as to type: cell-based
The target in assay [1] is T1, AHR (Homo sapiens, UniProt P35869).
T1 sequence (P35869 11-848): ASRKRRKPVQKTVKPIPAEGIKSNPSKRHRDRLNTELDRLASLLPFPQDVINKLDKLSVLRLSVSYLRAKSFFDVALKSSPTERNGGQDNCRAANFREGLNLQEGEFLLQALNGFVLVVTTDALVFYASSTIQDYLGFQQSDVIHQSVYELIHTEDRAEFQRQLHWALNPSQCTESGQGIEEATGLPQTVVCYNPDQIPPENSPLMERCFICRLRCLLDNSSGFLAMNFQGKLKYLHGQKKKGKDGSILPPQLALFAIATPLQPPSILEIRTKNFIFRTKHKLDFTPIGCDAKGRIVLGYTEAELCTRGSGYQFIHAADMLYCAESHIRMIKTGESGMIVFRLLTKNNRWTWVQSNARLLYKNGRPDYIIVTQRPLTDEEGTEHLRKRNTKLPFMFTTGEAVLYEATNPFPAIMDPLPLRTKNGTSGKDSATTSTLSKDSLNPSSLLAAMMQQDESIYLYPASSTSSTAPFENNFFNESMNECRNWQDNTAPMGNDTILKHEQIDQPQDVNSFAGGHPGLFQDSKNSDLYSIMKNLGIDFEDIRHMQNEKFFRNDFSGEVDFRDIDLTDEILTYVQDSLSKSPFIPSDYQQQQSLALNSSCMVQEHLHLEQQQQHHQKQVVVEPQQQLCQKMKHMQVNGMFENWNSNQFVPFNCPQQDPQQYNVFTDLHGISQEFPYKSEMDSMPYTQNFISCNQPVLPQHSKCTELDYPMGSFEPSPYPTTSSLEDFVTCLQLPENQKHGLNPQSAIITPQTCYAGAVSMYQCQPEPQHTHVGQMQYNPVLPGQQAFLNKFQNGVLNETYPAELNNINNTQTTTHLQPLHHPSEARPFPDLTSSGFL
The assay can be described thus: In vitro assay 1: antagonism in human cell line (transactivation assay, U87 cells prestimulated with kynurenic acid, DRE firefly luciferase reporter). More on the design: host or cells: U87 glioblastoma cells, stably transfected with DRE firefly luciferase and renilla reporter constructs. As to conditions: 150 uM kynurenic acid, 20 hours, read-out: Assay 1: AHR-luc Hum Antagonism IC50. In short, it runs like this:
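U87 glioblastoma cells with endogenous AHR, stably carrying a DRE-driven firefly luciferase reporter and a constitutive renilla reporter. Cells prestimulated with the AHR agonist kynurenic acid before compound addition; data normalized to positive and negative controls.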
On the technique in general: In a reporter assay the amount or activity of a reporter protein is the signal.

The target of assay [2] is T1, AHR. As to the kind of experiment: In vitro assay 3: AHR-regulated CYP1A1 expression in human cell line (U937, qPCR, KA stimulation). Particulars: U937 cells, 200 uM KA, 6 hours, CYP1A1 expression by qPCR; read-out: Assay 3: Hum CYP1A1 Antagonism IC50. The method, boiled down: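 U937 human monocytic cells were stimulated with 200 uM KA for 6 h, with or without compound at eight concentrations from 1 nM to 3 uM, in duplicate. CYP1A1 mRNA was quantified by Taqman qPCR as fold expression normalised to HPRT. Unstimulated cells served as negative control.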
A general note: Real-time PCR tracks product formation cycle by cycle.

In assay [3] the target is T1, AHR. As to the kind of experiment: In vitro assay 2: agonism in human cell line (transactivation assay, U87 cells, DRE firefly luciferase reporter). Details: host or cells: U87 glioblastoma cells, stably transfected with DRE firefly luciferase and renilla reporter constructs. As to conditions: no kynurenic acid, 20 hours, read-out: Assay 2: AHR-luc Hum Agonism IC50. In short, it runs like this: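 U87 glioblastoma cells with endogenous AHR, stably carrying DRE-driven firefly luciferase and constitutive renilla reporters. 300 uM kynurenic acid served as positive activation control; data normalized to positive and negative controls.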

The source of these data is patent US12522594B2, “2-heteroaryl-3-oxo-2,3-dihydropyridazine-4-carboxamides for the treatment of cancer” (Deutsches Krebsforschungszentrum, priority 2017, dated 2026).

pIC50: −log10 of the molar value. Bounds are passed on as bounds.

The pIC50 is the negative decadic logarithm of the IC50, by convention in mol/L. On to `Cn1cc(-n2nc(-c3ccc(Cl)cc3)cc(C(=O)N[C@H](CO)C(F)(F)F)c2=O)cn1` [Example 35, (+)-6-(4-Chlorophenyl)-2-(1-methyl-1H-pyrazol-4-yl)-3-oxo-N-[(2R)-1,1,1-trifluoro-3-hydroxypropan-2-yl]-2,3-dihydropyridazine-4-carboxamide], for which the pIC50 is 8.82 in assay [1], 7.39 in assay [2] and less than 4.70 in assay [3].
For `O=C(NC(CO)C(F)(F)F)c1cc(-c2ccc(OC(F)(F)F)cc2)nn(-c2cccnc2)c1=O` (stereo not drawn) [Example 149, 3-Oxo-2-(pyridin-3-yl)-N-(1,1,1-trifluoro-3-hydroxypropan-2-yl)-6-[4-(trifluoromethoxy)phenyl]-2,3-dihydropyridazine-4-carboxamide], in that order: 7.73, 7.95 and less than 4.70.
In the case of `O=C(NCC(O)C(F)F)c1cc(-c2ccc(Cl)cc2)nn(-c2cccnc2)c1=O` (single isomer, unassigned; (-)) [Example 87, (−)-6-(4-Chlorophenyl)-N-(3,3-difluoro-2-hydroxypropyl)-3-oxo-2-(pyridin-3-yl)-2,3-dihydropyridazine-4-carboxamide], the figures for the pIC50 in assay [1], in assay [2] and in assay [3] were 7.53, 7.67 and less than 4.70, respectively.
For `C[C@H](NC(=O)c1cc(-c2ccc(C(F)F)cc2)nn(-c2cccnc2)c1=O)C(C)(C)O` [Example 319, 6-[4-(Difluoromethyl)phenyl]-N-[(2S)-3-hydroxy-3-methylbutan-2-yl]-3-oxo-2-(pyridin-3-yl)-2,3-dihydropyridazine-4-carboxamide], in that order: 7.45, 7.65 and less than 4.70.
For `O=C(N[C@@H]1CC[C@@H]1O)c1cc(-c2ccc(C(F)(F)F)cc2)nn(-c2cccnc2)c1=O` (single isomer, unassigned) [Example 217, (+)-N-cis-2- Hydroxycyclobutyl-3-oxo-2-(pyridin-3-yl)-6-[4-(trifluoromethyl)phenyl]-2,3-dihydropyridazine-4-carboxamide], in that order: 8.61, 8.15 and less than 4.70.
For `Cc1ccc(-c2cc(C(=O)NCC(O)C(F)F)c(=O)n(-c3cnn(C)c3)n2)cc1` (single isomer, unassigned; enantiomer 1) [Example 14, N-(3,3-Difluoro-2-hydroxypropyl)-6-(4-methylphenyl)-2-(1-methyl-1H-pyrazol-4-yl)-3-oxo-2,3-dihydropyridazine-4-carboxamide, Enantiomer 1], in that order: 7.92, 7.59 and less than 4.70.
Regarding `O=C(N[C@H]1CCCC[C@H]1O)c1cc(-c2ccc(OC(F)(F)F)cc2)nn(-c2cccnc2)c1=O` [Example 126, N-[(1S,2R)-2-Hydroxycyclohexyl]-3-oxo-2-(pyridin-3-yl)-6-[4-(trifluoromethoxy)phenyl]-2,3-dihydropyridazine-4-carboxamide], the pIC50 is 8.34 in assay [1], 8.29 in assay [2] and less than 4.70 in assay [3].
In the same order, the values of `O=C(N[C@H]1COCC[C@H]1O)c1cc(-c2ccc(OC(F)(F)F)cc2)nn(-c2cccnc2)c1=O` [Example 176, 1,5-Anhydro-2,4-dideoxy-2-[({3-oxo-2-(pyridin-3-yl)-6-[4-(trifluoromethoxy)phenyl]-2,3-dihydropyridazin-4-yl}carbonyl)amino]-D-erythro-pentitol] are 7.18, 7.41 and less than 4.70.
In the same order, the values of `Cn1cc(-n2nc(-c3ccc(C(F)(F)F)cc3)cc(C(=O)N[C@H]3CCC[C@@H]3O)c2=O)cn1` [Example 210, N-[(1S,2S)-2-Hydroxycyclopentyl]-2-(1-methyl-1H-pyrazol-4-yl)-3-oxo-6-[4-(trifluoromethyl)phenyl]-2,3-dihydropyridazine-4-carboxamide] are 8.84, 8.69 and less than 4.70.
Regarding `O=C(N[C@H]1CCC[C@@H]1O)c1cc(-c2ccc(C(F)(F)F)cc2)nn(-c2cccnc2)c1=O` [Example 102, N-[(1S,2S)-2-Hydroxycyclopentyl]-3-oxo-2-(pyridin-3-yl)-6-[4-(trifluoromethyl)phenyl]-2,3-dihydropyridazine-4-carboxamide], the values for the pIC50 in assay [1], in assay [2] and in assay [3] were 8.73, 8.77 and less than 4.70, respectively.
On to `O=C(NC(CO)C(F)(F)F)c1cc(-c2ccc(Cl)cc2)nn(-c2cccnc2)c1=O` (racemic) [Example 76, 6-(4-Chlorophenyl)-3-oxo-2-(pyridin-3-yl)-N-[(2RS)-1,1,1-trifluoro-3-hydroxypropan-2-yl]-2,3-dihydropyridazine-4-carboxamide], for which the results for the pIC50 in assay [1], in assay [2] and in assay [3] were 7.92, 7.86 and less than 4.70, respectively.
In the same order, the values of `Cn1cc(-n2nc(-c3ccc(C(F)F)cc3)cc(C(=O)NCC(C)(C)O)c2=O)cn1` [Example 62, 6-[4-(Difluoromethyl)phenyl]-N-(2-hydroxy-2-methylpropyl)-2-(1-methyl-1H-pyrazol-4-yl)-3-oxo-2,3-dihydropyridazine-4-carboxamide] are 7.53, 7.72 and less than 4.70.
For `Cn1cc(-n2nc(-c3ccc(Cl)cc3)cc(C(=O)N[C@@H]3COC[C@@H]3O)c2=O)cn1` (single isomer, unassigned; enantiomer 1) [Example 44, 6-(4-Chlorophenyl)-N-[(cis)-4-hydroxytetrahydrofuran-3-yl]-2-(1-methyl-1H-pyrazol-4-yl)-3-oxo-2,3-dihydropyridazine-4-carboxamide, Enantiomer 1], in that order: 7.94, 8.03 and less than 4.70.
In the same order, the values of `O=C(NCC(O)C(F)(F)F)c1cc(-c2ccc(Cl)cc2)nn(-c2cccnc2)c1=O` (single isomer, unassigned; (+)) [Example 90, (+)-6-(4-Chlorophenyl)-3-oxo-2-(pyridin-3-yl)-N-(3,3,3-trifluoro-2-hydroxypropyl)-2,3-dihydropyridazine-4-carboxamide] are 7.66, 7.40 and less than 4.70.
`Cn1cc(-n2nc(-c3ccc(Cl)cc3)cc(C(=O)N[C@H]3COCC[C@H]3O)c2=O)cn1` [Example 61, 1,5-Anhydro-2-({[6-(4-chlorophenyl)-2-(1-methyl-1H-pyrazol-4-yl)-3-oxo-2,3-dihydropyridazin-4-yl]carbonyl}amino)-2,4-dideoxy-D-erythro-pentitol]: the pIC50 in assay [1] is 7.55; in assay [2] it was 7.41; in assay [3], less than 4.70.
As for `Cc1cc(-n2nc(-c3ccc(Cl)cc3)cc(C(=O)N[C@@H](C)CO)c2=O)[nH]n1` [Example 193, 6-(4-Chlorophenyl)-N-[(2S)-1-hydroxypropan-2-yl]-2-(3-methyl-1H-pyrazol-5-yl)-3-oxo-2,3-dihydropyridazine-4-carboxamide], the pIC50 was 6.45 in assay [1], 8.52 in assay [2] and less than 4.70 in assay [3].
Take `Cn1cc(-n2nc(-c3ccc(Cl)cc3)cc(C(=O)N[C@H]3CCC[C@@H]3O)c2=O)cn1` [Example 49, 6-(4-Chlorophenyl)-N-[(1S,2S)-2-hydroxycyclopentyl]-2-(1-methyl-1H-pyrazol-4-yl)-3-oxo-2,3-dihydropyridazine-4-carboxamide]: the pIC50 in assay [1] was 8.19; in assay [2], 8.12; in assay [3], less than 4.70.
`O=C(NCC(O)C(F)F)c1cc(-c2ccc(C(F)(F)F)cc2)nn(-c2cccnc2)c1=O` (single isomer, unassigned; (-)) [Example 230, (−)-N-(3,3-Difluoro-2-hydroxypropyl)-3-oxo-2-(pyridin-3-yl)-6-[4-(trifluoromethyl)phenyl]-2,3-dihydropyridazine-4-carboxamide]: the pIC50 in assay [1] is 8.12; in assay [2] it was 7.98; in assay [3], less than 4.70.
